Where a name gives a salt, the structure may show the parent alone.
Tests used:
[1] = target: T1, hrPARP-1 (human recombinant, Trevigen) (Homo sapiens, UniProt P09874); assay: Functional assessment of human PARP-1 enzymatic activity; type: biochemical; conditions: 1 U hrPARP-1, 15 μg/mL activated DNA, 5 μM NAD+, 20 min room temperature
T1 construct: purchased Trevigen
Method: Functional Assessment of Human PARP-1 Enzymatic Activity
hrPARP-1 (human recombinant, Trevigen), Activated DNA (Sigma), 6(5H)-phenanthridinone (PND), (Sigma), NAD+ (Calbiochem), PARP-1 assay buffer (50 mM Tris, 2 mM MgCl2, pH 8.0), 20% acetophenone in EtOH, 2 M KOH
88% formic acid, 110° C. oven, Flexstation Plate Reader.
Compound plates were prepared by making a series of 1:3 dilutions for each tested compound, 10 steps of each at 20 μL in DMSO starting from a concentration of 5 mM. NAD^+ (39 μL of a 6.4 μM solution) were added to each well of a 96-well flat bottom fluorescent assay plate. Test compound (1 μL) was added to each well. To initiate the reaction, 10 μL of PARP (contains 5 U of PARP and 75 μg/mL activated DNA) was added with a final 1 U hrPARP-1, 15 μg/mL activated DNA and 5 μM of NAD^+. The highest concentration used for test compounds was 100 μM. The plates were incubated at room temperature on a shaker. After 20 min, 20 μL of 2 M KOH and 20 μL of 20% acetophenone were added. The plate was incubated 10 min. at 4° C., and 90 μL of 88% formic acid was added. After incubating in an 110° C. oven for 5 min, the plate was cooled to room temperature and read of a Flexstation Plate Reader (excitation at 360 nm, emission at 445 nm).
LSW data analysis software was used to generate PARP-1 IC50s.

[2] = Microsomal stability, human liver microsomes; type: in vitro ADME; conditions: 0.5 mg/mL protein
Method: (§1) The assay protocol was described in Summerfield S G, Read K, Begley D J, Obradovic T, Hidalgo I J, Coggon S, Lewis A V, Porter R A, Jeffrey P 2007. Central Nervous System Drug Disposition: The Relationship between in Situ Brain Permeability and Brain Free Fraction. J Pharmacol Exp Ther, 322(1):205-213; and Li Di, E. Kerns, S. Li, S. Petusky, “High Throughput Metabolic Stability Assay for Insoluble Compounds”, Int. J. Pharm., 317, 54-60, 2006.
(§2) The samples were incubated with liver microsomes from rat, mouse, and human at 1 μM at microsomal protein concentration of 0.5 mg/mL at 37° C. in the presence of NADPH cofactor. At both time 0 and 15 minutes incubation, cold acetonitrile was added to the wells to stop the reaction. The solution was centrifuged and the supernatants were analyzed using LC-MS-MS. “Phase I” represents Phase I metabolism-oxidative metabolism by microsomes and “Phase II” represents Phase I oxidative metabolism (stated above) plus cofactors added that allow for Phase II (non-oxidative, conjugative) metabolism to take place.

[3] = Microsomal stability, C57 mouse liver microsomes; type: in vitro ADME; conditions: 0.5 mg/mL protein
Method: as §1, §2

[4] = MDCK permeability assay (efflux ratio); type: in vitro ADME, Canine; conditions: dog, MDCK-MDR1, pH 7.4, MDR-MDCK cells, 37° C., Papp(B-A)/Papp(A-B)
Method: 1. MDCK Permeability Assay
Multi Drug Resistance-Madin-Darby Canine Kidney (MDR-MDCK) cells were obtained from NIH (Bethesda, Md., USA). Cells were plated on Costar 3401 Transwell 12 well, 12 mm diameter, 0.4 um pore size plates (Costar, Mass., USA) and cultured for at least 6 days prior to the transport assay. The cells were carefully pre-washed with Hank's balanced salt solution containing 10 mM HEPES and 15 mM D-glucose at pH 7.4, which was also used as the assay buffer. The test compounds were dosed on the apical side (A-B) or the basolateral side (B-A) with 0.2 mM Lucifer Yellow (500 μL into apical side, 1500 μL into basolateral side). The test compounds in the apical or basolateral chambers were at an initial concentration of 10 μM. The plates were incubated at 37° C. with 5% CO2 and 90% relative humidity for 2 hours. One hundred microliters of receiver solution (basolateral side for A-B transport experiment, apical side for B-A transport experiment) was transferred to a 96 well plate for LC-MS-MS quantization of the test compound concentration and fluorometer quantization of Lucifer Yellow.
Quality control compounds and TEER measurements were run to assure proper operation of the assay (see Table 2). The TEER values of each well use for the assay should be ≧1400 ohm·cm^2.

[5] = Microsomal stability, rat liver microsomes; type: in vitro ADME; conditions: 0.5 mg/mL protein
Method: as §1, §2

[6] = Brain (B)-Plasma (P) dialysis; type: in vitro ADME; conditions: for Kp at 5 h, 10 μM: diluted plasma or brain homogenate vs PBS, 37° C., read-out: Brain-Plasma Dialysis B/P Ratio; for B/P ratio divided by MDCK efflux ratio at 10 μM: read-out: Brain-Plasma Dialysis B/P/efflux ratio (ER)
Method: 2. Brain (B)-Plasma (P) Dialysis
DMSO stock solution of 1 mM was prepared and 10 μL was added to 990 uL plasma (1 plasma:3 PBS) or brain homogeneous (1 brain:12 PBS). The final concentration was 10 μM test compound with 1% DMSO. The dialysis was setup with 200 uL PBS vs. 200 uL diluted plasma or diluted brain homogenates with test compounds. The dialysis plate was incubated at 37° C., 70 RPM for 5 hours. At the end of the incubation, 150 μL PBS, 50 uL plasma and 50 uL of brain homogenates were sampled from the dialysis device. Each of the samples was matched with PBS, plasma and brain homogenates to give consistent matrix material. Cold acetonitrile of 300 μL was added to the sample to precipitate the proteins and tissues. The solutions were centrifuged and the supernatants were transferred for LC-MS-MS analysis. Four replicates were preformed for each test compound. Data was calculated according to Summerfield S G, Read K, Begley D J, Obradovic T, Hidalgo I J, Coggon S, Lewis A V, Porter R A, Jeffrey P 2007. Central Nervous System Drug Disposition: The Relationship between in Situ Brain Permeability and Brain Free Fraction.

[7] = NADPH, Phase I, read-out: Microsomal Stability Human Phase I t1/2
[8] = Phase I plus Phase II cofactors, read-out: Microsomal Stability Human Phase I & II t1/2
[9] = NADPH, Phase I, read-out: Microsomal Stability C57 Mouse Phase I t1/2
[10] = Phase I plus Phase II cofactors, read-out: Microsomal Stability C57 Mouse Phase I & II t1/2
[11] = NADPH, Phase I, read-out: Microsomal Stability Rat Phase I t1/2
[12] = Phase I plus Phase II cofactors, read-out: Microsomal Stability Rat Phase I & II t1/2

T1 sequence (P09874 whole entry): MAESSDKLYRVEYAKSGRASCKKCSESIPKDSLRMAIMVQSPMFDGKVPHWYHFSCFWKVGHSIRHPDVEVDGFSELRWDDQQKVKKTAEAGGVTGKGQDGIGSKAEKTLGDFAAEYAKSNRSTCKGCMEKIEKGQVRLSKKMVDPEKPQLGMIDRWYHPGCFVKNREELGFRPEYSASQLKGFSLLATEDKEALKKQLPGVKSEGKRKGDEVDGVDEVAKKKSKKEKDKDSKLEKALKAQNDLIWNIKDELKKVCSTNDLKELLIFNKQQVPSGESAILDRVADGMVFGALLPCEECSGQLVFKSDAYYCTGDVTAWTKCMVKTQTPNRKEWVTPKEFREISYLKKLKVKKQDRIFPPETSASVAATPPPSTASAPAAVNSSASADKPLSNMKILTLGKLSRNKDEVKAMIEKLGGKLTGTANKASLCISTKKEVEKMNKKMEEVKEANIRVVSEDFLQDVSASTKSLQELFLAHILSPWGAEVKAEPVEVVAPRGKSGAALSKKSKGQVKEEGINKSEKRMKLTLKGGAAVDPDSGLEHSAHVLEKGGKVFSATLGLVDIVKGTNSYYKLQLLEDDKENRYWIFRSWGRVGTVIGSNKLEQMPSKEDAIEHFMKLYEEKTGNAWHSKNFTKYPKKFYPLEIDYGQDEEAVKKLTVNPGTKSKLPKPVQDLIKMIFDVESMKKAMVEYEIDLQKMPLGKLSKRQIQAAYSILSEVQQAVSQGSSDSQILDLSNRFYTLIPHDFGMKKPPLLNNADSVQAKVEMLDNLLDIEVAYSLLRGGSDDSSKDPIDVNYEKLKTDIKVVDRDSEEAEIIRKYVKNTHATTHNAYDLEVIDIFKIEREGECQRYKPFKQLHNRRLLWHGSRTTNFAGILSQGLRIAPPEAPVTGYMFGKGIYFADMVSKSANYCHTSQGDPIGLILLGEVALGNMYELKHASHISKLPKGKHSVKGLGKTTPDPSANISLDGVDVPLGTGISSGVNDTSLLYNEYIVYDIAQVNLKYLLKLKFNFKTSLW

Compound | IC50 [1] | half-life at 1 μM [2, 7] | half-life at 1 μM [2, 8] | half-life at 1 μM [3, 9] | half-life at 1 μM [3, 10] | efflux ratio at 2 h, 10 μM [4] | half-life at 1 μM [5, 11] | half-life at 1 μM [5, 12] | Kp at 5 h, 10 μM [6] | B/P ratio divided by MDCK efflux ratio at 10 μM [6] | melting point
CN(C)Cc1cc2c([nH]c(=O)c3cc(F)ccc32)s1 [Example 4, 2-[(Dimethylamino)methyl]-7-fluorothieno-[2,3-c]isoquinolin-5(4H)-one hydrochloride] | 100 nM |  |  |  |  |  |  |  |  |  | 
O=c1[nH]c2sc(CN3CCCC3)cc2c2c(O)cccc12 [Example 14, 9-Hydroxy-2-(pyrrolidin-1-ylmethyl)thieno[2,3-c]isoquinolin-5(4H)-one] | 81 nM | > 30 min | > 30 min | > 30 min | > 30 min | > 20 | > 30 min | > 30 min | 1.03 | < 0.05 | 
CN(C)Cc1cc2c([nH]c(=O)c3ccccc32)s1 [Example 3, 2-[(Dimethylamino)methyl]thieno[2,3-c]isoquinolin-5(4H)-one hydrochloride] | 260 nM |  |  |  |  |  |  |  |  |  | 
O=c1[nH]c2sc(CN(Cc3ccccc3)Cc3ccccc3)cc2c2c(O)cccc12 [Example 16, 2-[(Dibenzylamino)methyl]-9-hydroxythieno[2,3-c]isoquinolin-5(4H)-one] | 1060 nM |  |  |  |  |  |  |  |  |  | 
CN(C)Cc1cc2c([nH]c(=O)c3ccc(Cl)cc32)s1 [Example 6, 8-Chloro-2-[(dimethylamino)methyl]thieno[2,3-c]isoquinolin-5(4H)-one hydrochloride] | 2250 nM |  |  |  |  |  |  |  |  |  | 
O=c1[nH]c2sc(CN3CCC(Br)CC3)cc2c2c(O)cccc12 [Example 15, 2-[(4-Bromopiperidin-1-yl)methyl]-9-hydroxythieno[2,3-c]isoquinolin-5(4H)-one] | 35 nM | 7 min | 5 min | 4 min | 3 min | 0.9 | 3 min | 3 min | 1.12 | 1.12 | 
O=c1[nH]c2sc(CN3CCOCC3)cc2c2c(O)cccc12 [Example 10, 9-Hydroxy-2-(morpholin-4-ylmethyl)thieno[2,3-c]isoquinolin-5(4H)-one] | 5.6 nM | > 30 min | 30 min | > 30 min | > 30 min | 3.1 | 30 min | > 30 min | 0.81 | 0.04 | 
COc1ccc2c(=O)[nH]c3sc(CN(C)C)cc3c2c1 [Example 8, 2-[(Dimethylamino)methyl]-8-methoxythieno[2,3-c]isoquinolin-5(4H)-one hydrochloride] | 2190 nM |  |  |  |  |  |  |  |  |  | 
CN(C)Cc1cc2c([nH]c(=O)c3ccccc32)o1 [Example 9, 2-[(Dimethylamino)methyl]furo[2,3-c]isoquinolin-5(4H)-one hydrochloride] | 161 nM |  |  |  |  |  |  |  |  |  | 
CN(C)Cc1cc2c([nH]c(=O)c3cc(F)cc(O)c32)s1 [Example 7, 2-[(Dimethylamino)methyl]-7-fluoro-9-hydroxythieno[2,3-c]isoquinolin-5(4H)-one hydrochloride] | 38 nM |  |  |  |  |  |  |  |  |  | 

The remaining molecules from weak to strong by IC50 [1], led by results:

IC50 [1] | half-life at 1 μM [2, 7] | half-life at 1 μM [2, 8] | half-life at 1 μM [3, 9] | half-life at 1 μM [3, 10] | efflux ratio at 2 h, 10 μM [4] | half-life at 1 μM [5, 11] | half-life at 1 μM [5, 12] | Kp at 5 h, 10 μM [6] | B/P ratio divided by MDCK efflux ratio at 10 μM [6] | melting point | Compound
373 nM |  |  |  |  |  |  |  |  |  |  | CN(Cc1ccccc1)Cc1cc2c([nH]c(=O)c3cccc(O)c32)s1 [Example 17, 2-{[Benzyl(methyl)amino]methyl}-9-hydroxythieno[2,3-c]isoquinolin-5(4H)-one]
200 nM |  |  |  |  |  |  |  |  |  |  | CN(C)Cc1cc2c([nH]c(=O)c3cccc(F)c32)s1 [Example 5, 2-[(Dimethylamino)methyl]-9-fluorothieno[2,3-c]isoquinolin-5(4H)-one hydrochloride]
137 nM |  |  |  |  |  |  |  |  |  | 264 to 265 °C | COc1cccc2c(=O)[nH]c3sc(CN(C)C)cc3c12.Cl [Example 1, 2-Dimethylaminomethyl-9-methoxythieno[2,3-c]isoquinolin-5(4H)-one hydrochloride]
86 nM | > 30 min | > 30 min | 28 min | 24 min |  | < 1 min | < 1 min | 1.53 |  |  | CC(C)NCc1cc2c([nH]c(=O)c3cccc(O)c32)s1 [Example 13, 9-Hydroxy-2-{[(1-methylethyl)amino]methyl}thieno[2,3-c]isoquinolin-5(4H)-one]
28 nM | > 30 min | 17 min | 15 min | 19 min | 1.7 | 6 min | < 1 min | 0.05 | 0.03 |  | Br.CN(C)Cc1cc2c([nH]c(=O)c3cccc(O)c32)s1 [Example 2, 2-Dimethylaminomethyl-9-hydroxythieno[2,3-c]isoquinolin-5(4H)-one hydrobromide]
4.7 nM | 19 min | 17 min | 27 min | > 30 min | 10.4 | 10 min | 18 min | 1.25 | 0.12 |  | O=c1[nH]c2sc(CN3CCCCC3)cc2c2c(O)cccc12 [Example 11, 9-Hydroxy-2-(piperidin-1-ylmethyl)thieno[2,3-c]isoquinolin-5(4H)-one]
3.3 nM | 6 min | 4 min | 4 min | 5 min | 0.8 | 5 min | 5 min | 0.79 | 0.79 |  | O=c1[nH]c2sc(CN3CCSC3)cc2c2c(O)cccc12 [Example 12, 9-Hydroxy-2-(1,3-thiazolidin-3-ylmethyl)thieno[2,3-c]isoquinolin-5(4H)-one]

Reference: patent publication US9079915B2, “Thienyl- and furanyl-isoquinolinones and methods for using them” (priority 2008, dated 2015)
